Target: histidine-tagged recombinant human TrkA, cytoplasmic domain (Homo sapiens (Human), UniProt P04629)
Assay: TrkA ELISA Assay
Format: biochemical
Conditions: 2.5 nM TrkA, 500 μM ATP, 25 minutes; read-out: TrkA Elisa Enzyme IC50
Procedure: An enzyme-linked immunosorbant assay (ELISA) was used to assess TrkA kinase activity in the presence of inhibitors. Immulon 4HBX 384-well microtiter plates (Thermo part #8755) were coated with a 0.025 mg/mL solution of poly (Glu, Ala, Tyr; 6:3:1; Sigma P3899). Various concentrations of test compound, 2.5 nM TrkA (Invitrogen Corp., histidine-tagged recombinant human TrkA, cytoplasmic domain), and 500 μM ATP were incubated for 25 minutes at ambient temperature in the coated plates while shaking. The assay buffer consisted of 25 mM MOPS pH 7.5, 0.005% (v/v) Triton X-100 and 5 mM MgCl2. The reaction mixture was removed from the plate by washing with PBS containing 0.1% (v/v) Tween 20. The phosphorylated reaction product was detected using 0.2 μg/mL of a phosphotyrosine specific monoclonal antibody (clone PY20) conjugated to horseradish peroxidase in conjunction with the TMB Peroxidase Substrate System (KPL). After the addition of 1M phosphoric acid, the chromogenic substrate color intensity was quantitated via absorbance at 450 nm. IC50 values were calculated using either a 4 or 5-parameter logistic curve fit.

histidine-tagged recombinant human TrkA, cytoplasmic domain, sequence (P04629 440-796): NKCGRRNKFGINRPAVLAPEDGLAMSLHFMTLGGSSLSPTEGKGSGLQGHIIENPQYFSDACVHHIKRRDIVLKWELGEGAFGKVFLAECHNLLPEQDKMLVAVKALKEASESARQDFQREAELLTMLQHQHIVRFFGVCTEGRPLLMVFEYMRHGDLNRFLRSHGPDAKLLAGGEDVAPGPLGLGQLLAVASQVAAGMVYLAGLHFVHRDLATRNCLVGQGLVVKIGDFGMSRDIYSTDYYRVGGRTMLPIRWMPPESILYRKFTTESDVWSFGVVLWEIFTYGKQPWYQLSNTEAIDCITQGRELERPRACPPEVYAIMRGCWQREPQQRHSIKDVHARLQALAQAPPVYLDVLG

Row | SMILES | IC50
1 | CC(C)(CO)C(=O)Nc1cnn2ccc(N3CCC[C@@H]3c3cc(F)ccc3F)nc12 [Example 64, (R)—N-(5-(2-(2,5-difluorophenyl)pyrrolidin-1-yl)pyrazolo[1,5-a]pyrimidin-3-yl)-3-hydroxy-2,2-dimethylpropanamide] | 7.5 nM
2 | O=C(Nc1cnn2ccc(N3CCC[C@@H]3c3cc(F)ccc3F)nc12)C1(O)CC1 [Example 65, (R)—N-(5-(2-(2,5-difluorophenyl)pyrrolidin-1-yl)pyrazolo[1,5-a]pyrimidin-3-yl)-1-hydroxycyclopropanecarboxamide] | 16.5 nM
3 | CNC(C)(C)C(=O)Nc1cnn2ccc(N3CCC[C@@H]3c3cc(F)ccc3F)nc12 [Example 66, (R)—N-(5-(2-(2,5-difluorophenyl)pyrrolidin-1-yl)pyrazolo[1,5-a]pyrimidin-3-yl)-2-methyl-2-(methylamino)propanamide] | 52.5 nM
4 | O=C(Nc1cnn2ccc(N3CCC[C@@H]3c3cc(F)ccc3F)nc12)c1ncccn1 [Example 67, (R)—N-(5-(2-(2,5-difluorophenyl)pyrrolidin-1-yl)pyrazolo[1,5-a]pyrimidin-3-yl)pyrimidine-2-carboxamide] | 3 nM
5 | O=C(Nc1cnn2ccc(N3CCC[C@@H]3c3cccc(F)c3)nc12)c1ccccn1 [Example 68, (R)—N-(5-(2-(3-fluorophenyl)pyrrolidin-1-yl)pyrazolo[1,5-a]pyrimidin-3-yl)picolinamide] | 4 nM
6 | Cc1cccnc1C(=O)Nc1cnn2ccc(N3CCC[C@@H]3c3cccc(F)c3)nc12 [Example 69, (R)—N-(5-(2-(3-fluorophenyl)pyrrolidin-1-yl)pyrazolo[1,5-a]pyrimidin-3-yl)-3-methylpicolinamide] | 6.2 nM
7 | Cn1ccc(C(=O)Nc2cnn3ccc(N4CCC[C@@H]4c4cccc(F)c4)nc23)cc1=O [Example 70, (R)—N-(5-(2-(3-fluorophenyl)pyrrolidin-1-yl)pyrazolo[1,5-a]pyrimidin-3-yl)-1-methyl-2-oxo-1,2-dihydropyridine-4-carboxamide] | 55.6 nM
8 | O=C(Nc1cnn2ccc(N3CCC[C@@H]3c3cc(F)ccc3F)nc12)c1cccc(Cl)n1 [Example 71, (R)-6-chloro-N-(5-(2-(2,5-difluorophenyl)pyrrolidin-1-yl)pyrazolo[1,5-a]pyrimidin-3-yl)picolinamide] | 3.5 nM
9 | CCS(=O)(=O)Nc1ccc(C(=O)Nc2cnn3ccc(N4CCC[C@@H]4c4cccc(F)c4)nc23)cc1 [Example 72, (R)-4-(ethylsulfonamido)-N-(5-(2-(3-fluorophenyl)pyrrolidin-1-yl)pyrazolo[1,5-a]pyrimidin-3-yl)benzamide] | 45.5 nM
10 | Cn1ccc(C(=O)Nc2cnn3ccc(N4CCC[C@@H]4c4cccc(F)c4)nc23)n1 [Example 73, (R)—N-(5-(2-(3-fluorophenyl)pyrrolidin-1-yl)pyrazolo[1,5-a]pyrimidin-3-yl)-1-methyl-1H-pyrazole-3-carboxamide] | 8.5 nM
11 | O=C(Nc1cnn2ccc(N3CCC[C@@H]3c3cccc(F)c3)nc12)c1cc[nH]n1 [Example 74, (R)—N-(5-(2-(3-fluorophenyl)pyrrolidin-1-yl)pyrazolo[1,5-a]pyrimidin-3-yl)-1H-pyrazole-3-carboxamide] | 15.3 nM
12 | COc1cccc(C(=O)Nc2cnn3ccc(N4CCC[C@@H]4c4cccc(F)c4)nc23)n1 [Example 75, (R)—N-(5-(2-(3-fluorophenyl)pyrrolidin-1-yl)pyrazolo[1,5-a]pyrimidin-3-yl)-6-methoxypicolinamide] | 7.4 nM
13 | O=C(Nc1cnn2ccc(N3CCC[C@@H]3c3cccc(F)c3)nc12)c1cccnc1 [Example 76, (R)—N-(5-(2-(3-fluorophenyl)pyrrolidin-1-yl)pyrazolo[1,5-a]pyrimidin-3-yl)nicotinamide] | 53.3 nM
14 | O=C(Nc1cnn2ccc(N3CCC[C@@H]3c3cccc(F)c3)nc12)c1ccncc1 [Example 77, (R)—N-(5-(2-(3-fluorophenyl)pyrrolidin-1-yl)pyrazolo[1,5-a]pyrimidin-3-yl)isonicotinamide] | 71.8 nM
15 | Cc1ccc(C(=O)Nc2cnn3ccc(N4CCC[C@@H]4c4cccc(F)c4)nc23)cn1 [Example 78, (R)—N-(5-(2-(3-fluorophenyl)pyrrolidin-1-yl)pyrazolo[1,5-a]pyrimidin-3-yl)-6-methylnicotinamide] | 47 nM
16 | COc1ncccc1C(=O)Nc1cnn2ccc(N3CCC[C@@H]3c3cccc(F)c3)nc12 [Example 79, (R)—N-(5-(2-(3-fluorophenyl)pyrrolidin-1-yl)pyrazolo[1,5-a]pyrimidin-3-yl)-2-methoxynicotinamide] | 5.7 nM

Row | SMILES | IC50
17 | Cc1cnccc1C(=O)Nc1cnn2ccc(N3CCC[C@@H]3c3cccc(F)c3)nc12 [Example 80, (R)—N-(5-(2-(3-fluorophenyl)pyrrolidin-1-yl)pyrazolo[1,5-a]pyrimidin-3-yl)-3-methylisonicotinamide] | 320 nM
18 | O=C(Nc1cnn2ccc(N3CCC[C@@H]3c3cc(F)ccc3Cl)nc12)N1CC[C@H](O)C1 [Example 81, (S)—N-(5-((R)-2-(2-chloro-5-fluorophenyl)pyrrolidin-1-yl)pyrazolo[1,5-a]pyrimidin-3-yl)-3-hydroxypyrrolidine-1-carboxamide] | 8 nM
19 | Cc1cnc(C(=O)Nc2cnn3ccc(N4CCC[C@@H]4c4cccc(F)c4)nc23)cn1 [Example 82, (R)—N-(5-(2-(3-fluorophenyl)pyrrolidin-1-yl)pyrazolo[1,5-a]pyrimidin-3-yl)-5-methylpyrazine-2-carboxamide] | 6.6 nM
20 | Cn1ccnc1C(=O)Nc1cnn2ccc(N3CCC[C@@H]3c3cccc(F)c3)nc12 [Example 83, (R)—N-(5-(2-(3-fluorophenyl)pyrrolidin-1-yl)pyrazolo[1,5-a]pyrimidin-3-yl)-1-methyl-1H-imidazole-2-carboxamide] | 35.4 nM
21 | O=C(Nc1cnn2ccc(N3CCC[C@@H]3c3cc(F)ccc3C(F)(F)F)nc12)N1CC[C@H](O)C1 [Example 84, (S)—N-(5-((R)-2-(5-fluoro-2-(trifluoromethyl)phenyl)pyrrolidin-1-yl)pyrazolo[1,5-a]pyrimidin-3-yl)-3-hydroxypyrrolidine-1-carboxamide] | 3.2 nM
22 | O=C(Nc1cnn2ccc(N3CCC[C@@H]3c3cc(F)ccc3C(F)(F)F)nc12)N1CC[C@@H](O)C1 [Example 85, (R)—N-(5-((R)-2-(5-fluoro-2-(trifluoromethyl)phenyl)pyrrolidin-1-yl)pyrazolo[1,5-a]pyrimidin-3-yl)-3-hydroxypyrrolidine-1-carboxamide] | 5.7 nM
23 | O=C(Nc1cnn2ccc(N3CCC[C@@H]3c3cc(F)ccc3C(F)(F)F)nc12)N1CCC[C@@H](O)C1 [Example 86, (R)—N-(5-((R)-2-(5-fluoro-2-(trifluoromethyl)phenyl)pyrrolidin-1-yl)pyrazolo[1,5-a]pyrimidin-3-yl)-3-hydroxypiperidine-1-carboxamide] | 14 nM
24 | O=C(Nc1cnn2ccc(N3CCC[C@@H]3c3cc(F)ccc3C(F)(F)F)nc12)N1CCC[C@H](O)C1 [Example 87, (S)—N-(5-((R)-2-(5-fluoro-2-(trifluoromethyl)phenyl)pyrrolidin-1-yl)pyrazolo[1,5-a]pyrimidin-3-yl)-3-hydroxypiperidine-1-carboxamide] | 14.6 nM
25 | O=C(Nc1cnn2ccc(N3CCC[C@@H]3c3cncc(F)c3)nc12)N1CC[C@H](O)C1 [Example 88, (S)—N-(5-((R)-2-(5-fluoropyridin-3-yl)pyrrolidin-1-yl)pyrazolo[1,5-a]pyrimidin-3-yl)-3-hydroxypyrrolidine-1-carboxamide] | 156 nM
26 | O=C(Nc1cnn2ccc(N3CCC[C@@H]3c3cncc(F)c3)nc12)N1CC[C@@H](O)C1 [Example 89, (R)—N-(5-((R)-2-(5-fluoropyridin-3-yl)pyrrolidin-1-yl)pyrazolo[1,5-a]pyrimidin-3-yl)-3-hydroxypyrrolidine-1-carboxamide] | 896 nM
27 | COc1ccc(F)cc1[C@H]1CCCN1c1ccn2ncc(NC(=O)N3CC[C@H](O)C3)c2n1 [Example 90, (S)—N-(5-((R)-2-(5-fluoro-2-methoxyphenyl)pyrrolidin-1-yl)pyrazolo[1,5-a]pyrimidin-3-yl)-3-hydroxypyrrolidine-1-carboxamide] | 11.3 nM
28 | COc1ccc(F)cc1[C@H]1CCCN1c1ccn2ncc(NC(=O)N3CCC[C@H](O)C3)c2n1 [Example 91, (S)—N-(5-((R)-2-(5-fluoro-2-methoxyphenyl)pyrrolidin-1-yl)pyrazolo[1,5-a]pyrimidin-3-yl)-3-hydroxypiperidine-1-carboxamide] | 10.2 nM
29 | O=C(Nc1cnn2ccc(N3CCC[C@@H]3c3cc(F)ccc3F)nc12)N1C[C@@H]2C[C@H]1CO2 [Example 92, (1S,4S)—N-(5-((R)-2-(2,5-difluorophenyl)pyrrolidin-1-yl)pyrazolo[1,5-a]pyrimidin-3-yl)-2-oxa-5-azabicyclo[2.2.1]heptane-5-carboxamide] | 107 nM
30 | O=C(Nc1cnn2ccc(N3CCC[C@@H]3c3cc(F)ccc3F)nc12)[C@H]1CC[C@@H](O)C1 [Example 94, (1S,3R)—N-(5-((R)-2-(2,5-difluorophenyl)pyrrolidin-1-yl)pyrazolo[1,5-a]pyrimidin-3-yl)-3-hydroxycyclopentanecarboxamide] | 20.3 nM
31 | O=C(Nc1cnn2ccc(N3CCC[C@@H]3c3cc(F)ccc3F)nc12)[C@H]1CC[C@H](O)C1 [Example 95, (1S,3S)—N-(5-((R)-2-(2,5-difluorophenyl)pyrrolidin-1-yl)pyrazolo[1,5-a]pyrimidin-3-yl)-3-hydroxycyclopentanecarboxamide] | 42.5 nM
